# How the values were obtained:
# Format in all cases: functional
# A498 = assay: Cytotoxicity against human A498 cells assessed as cell growth at 10^-8 M after 48 hrs by SRB assay relative to control; details: A498, 48 h, read-out: Activity
# [1] = Cytotoxicity against human SKOV3 cells assessed as cell growth at 10^-7 M after 48 hrs by SRB assay relative to control; details: SK-OV-3, 48 h, read-out: Activity
# HOP-62 = assay: Cytotoxicity against human HOP62 cells assessed as cell growth at 10^-8 M after 48 hrs by SRB assay relative to control; details: HOP-62, 48 h, read-out: Activity
# U-251 = assay: Cytotoxicity against human U251 cells assessed as cell growth at 10^-6 M after 48 hrs by SRB assay relative to control; details: U-251, 48 h, read-out: Activity
# K562 = assay: Cytotoxicity against human K562 cells after 48 hrs by SRB assay; details: K562, 48 h; for CC50: read-out: LC50 (the source's name)
# IGROV-1 [2] = assay: Cytotoxicity against human IGROV1 cells after 48 hrs by SRB assay; details: IGROV-1, 48 h
# 786-0 [3] = assay: Cytotoxicity against human 786-0 cells assessed as cell growth at 10^-4 M after 48 hrs by SRB assay relative to control; details: 786-0, 48 h, read-out: Activity
# SK-MEL-5 = assay: Cytotoxicity against human SK-MEL-5 cells assessed as cell growth at 10^-7 M after 48 hrs by SRB assay relative to control; details: SK-MEL-5, 48 h, read-out: Activity
# HL-60(TB) [4] = assay: Cytotoxicity against human HL-60(TB) cells assessed as cell growth at 10^-4 M after 48 hrs by SRB assay relative to control; details: HL-60, 48 h, read-out: Activity
# [5] = Cytotoxicity against human OVCAR4 cells after 48 hrs by SRB assay; details: OVCAR-4, 48 h
# SN12C [6] = assay: Cytotoxicity against human SN12C cells assessed as cell growth at 10^-8 M after 48 hrs by SRB assay relative to control; details: read-out: Activity
# NCI-H226 = assay: Cytotoxicity against human NCI-H226 cells assessed as cell growth at 10^-7 M after 48 hrs by SRB assay relative to control; details: NCI-H226, 48 h, read-out: Activity
# NCI-H460 = assay: Cytotoxicity against human NCI-H460 cells assessed as cell growth at 10^-4 M after 48 hrs by SRB assay relative to control; details: NCI-H460, 48 h, read-out: Activity
# HL-60(TB) [7] = assay: Cytotoxicity against human HL-60(TB) cells assessed as cell growth at 10^-6 M after 48 hrs by SRB assay relative to control; details: HL-60, 48 h, read-out: Activity
# MCF7 [8] = assay: Cytotoxicity against human MCF7 cells after 48 hrs by SRB assay; details: MCF7, 48 h; for CC50: read-out: LC50 (the source's name)
# SF-539 = assay: Cytotoxicity against human SF539 cells after 48 hrs by SRB assay; details: SF-539, 48 h; for CC50: read-out: LC50 (the source's name)
# ACHN = assay: Cytotoxicity against human ACHN cells assessed as cell growth at 10^-4 M after 48 hrs by SRB assay relative to control; details: read-out: Activity
# NCI-H322M = assay: Cytotoxicity against human NCI-H322M cells assessed as cell growth at 10^-4 M after 48 hrs by SRB assay relative to control; details: read-out: Activity
# [9] = Cytotoxicity against human HCT116 cells assessed as cell growth at 10^-8 M after 48 hrs by SRB assay relative to control; details: HCT-116, 48 h, read-out: Activity
# [10] = Cytotoxicity against human UO31 cells assessed as cell growth at 10^-7 M after 48 hrs by SRB assay relative to control; details: UO-31, 48 h, read-out: Activity
# 786-0 [11] = assay: Cytotoxicity against human 786-0 cells assessed as cell growth at 10^-7 M after 48 hrs by SRB assay relative to control; details: 786-0, 48 h, read-out: Activity
# CAKI-1 = assay: Cytotoxicity against human Caki1 cells assessed as cell growth at 10^-8 M after 48 hrs by SRB assay relative to control; details: CAKI-1, 48 h, read-out: Activity
# LOX IMVI = assay: Cytotoxicity against human LOXIMVI cells assessed as cell growth at 10^-6 M after 48 hrs by SRB assay relative to control; details: read-out: Activity
# MCF7 [12] = assay: Cytotoxicity against human MCF7 cells assessed as cell growth at 10^-7 M after 48 hrs by SRB assay relative to control; details: MCF7, 48 h, read-out: Activity
# [13] = Cytotoxicity against human OVCAR5 cells assessed as cell growth at 10^-8 M after 48 hrs by SRB assay relative to control; details: OVCAR-5, 48 h, read-out: Activity
# HT-29 = assay: Cytotoxicity against human HT-29 cells after 48 hrs by SRB assay; details: HT-29, 48 h; for CC50: read-out: LC50 (the source's name)
# SNB-75 = assay: Cytotoxicity against human SNB75 cells assessed as cell growth at 10^-7 M after 48 hrs by SRB assay relative to control; details: SNB-75, 48 h, read-out: Activity
# SNB-19 = assay: Cytotoxicity against human SNB19 cells assessed as cell growth at 10^-4 M after 48 hrs by SRB assay relative to control; details: SNB-19, 48 h, read-out: Activity
# TK-10 = assay: Cytotoxicity against human TK10 cells after 48 hrs by SRB assay; details: TK-10, 48 h
# MDA-MB-231 = assay: Cytotoxicity against human MDA-MB-231 cells assessed as cell growth at 10^-7 M after 48 hrs by SRB assay relative to control; details: MDA-MB-231, 48 h, read-out: Activity
# HCC 2998 = assay: Cytotoxicity against human HCC2998 cells assessed as cell growth at 10^-7 M after 48 hrs by SRB assay relative to control; details: HCC 2998, 48 h, read-out: Activity
# T47D = assay: Cytotoxicity against human T47D cells assessed as cell growth at 10^-8 M after 48 hrs by SRB assay relative to control; details: read-out: Activity
# MDA-MB-435 = assay: Cytotoxicity against human MDA-MB-435 cells assessed as cell growth at 10^-8 M after 48 hrs by SRB assay relative to control; details: MDA-MB-435, 48 h, read-out: Activity
# IGROV-1 [14] = assay: Cytotoxicity against human IGROV1 cells assessed as cell growth at 10^-6 M after 48 hrs by SRB assay relative to control; details: IGROV-1, 48 h, read-out: Activity
# SN12C [15] = assay: Cytotoxicity against human SN12C cells after 48 hrs by SRB assay
smiles,measurement,setting,value
COc1ccc(CCN2COc3c([C@@H](C)CCC=C(C)C)ccc(C)c3C2)cc1OC,growth at 0.01 µM,A498,67%
same,growth at 0.1 µM,[1],98%
same,growth at 0.01 µM,HOP-62,101%
same,growth at 1 µM,U-251,88%
same,GI50,K562,3.7 µM
same,TGI,K562,93.5 µM
same,CC50,K562,> 100 µM
same,GI50,IGROV-1 [2],1.08 µM
same,LC50 (concentration killing 50% of cells),IGROV-1 [2],12.7 µM
same,TGI,IGROV-1 [2],3.52 µM
same,growth at 100 µM,786-0 [3],-100%
same,growth at 0.1 µM,SK-MEL-5,91%
same,growth at 100 µM,HL-60(TB) [4],-5%
same,GI50,[5],2.89 µM
same,LC50,[5],> 100 µM
same,TGI,[5],16 µM
same,growth at 0.01 µM,SN12C [6],86%
same,growth at 0.1 µM,NCI-H226,88%
same,growth at 100 µM,NCI-H460,-92%
same,growth at 1 µM,HL-60(TB) [7],100%
same,GI50,MCF7 [8],3.29 µM
same,TGI,MCF7 [8],11 µM
same,CC50,MCF7 [8],36.3 µM
same,GI50,SF-539,4.47 µM
same,TGI,SF-539,15.9 µM
same,CC50,SF-539,39.9 µM
same,growth at 100 µM,ACHN,-92%
same,growth at 100 µM,NCI-H322M,-69%
same,growth at 0.01 µM,[9],98%
same,growth at 0.1 µM,[10],92%
same,growth at 0.1 µM,786-0 [11],65%
same,growth at 0.01 µM,CAKI-1,94%
same,growth at 1 µM,LOX IMVI,88%
same,growth at 0.1 µM,MCF7 [12],90%
same,growth at 0.01 µM,[13],92%
same,GI50,HT-29,2.2 µM
same,TGI,HT-29,5.73 µM
same,CC50,HT-29,22.4 µM
same,growth at 0.1 µM,SNB-75,86%
same,growth at 100 µM,SNB-19,-33%
same,GI50,TK-10,2.19 µM
same,LC50,TK-10,24.6 µM
same,TGI,TK-10,5.95 µM
same,growth at 0.1 µM,MDA-MB-231,82%
same,growth at 0.1 µM,HCC 2998,83%
same,growth at 0.01 µM,T47D,88%
same,growth at 0.01 µM,MDA-MB-435,97%
same,growth at 1 µM,IGROV-1 [14],53%
same,GI50,SN12C [15],3.27 µM
same,LC50,SN12C [15],36.8 µM
same,TGI,SN12C [15],13.5 µM
CC(C)=CCC[C@H](C)c1ccc(C)c2c1OCN(CC1CCNCC1)C2,growth at 0.01 µM,A498,78%
same,growth at 0.1 µM,[1],98%
same,growth at 0.01 µM,HOP-62,104%
same,growth at 1 µM,U-251,100%
same,GI50,K562,2.68 µM
same,TGI,K562,8.44 µM
same,CC50,K562,97.7 µM
same,GI50,IGROV-1 [2],16.6 µM
same,LC50 (concentration killing 50% of cells),IGROV-1 [2],62.5 µM
same,TGI,IGROV-1 [2],32.2 µM
same,growth at 100 µM,786-0 [3],-87%
same,growth at 0.1 µM,SK-MEL-5,88%
same,growth at 100 µM,HL-60(TB) [4],-73%
same,GI50,[5],16 µM
same,LC50,[5],58.9 µM
same,TGI,[5],30.7 µM
same,growth at 0.01 µM,SN12C [6],97%
same,growth at 0.1 µM,NCI-H226,98%
same,growth at 100 µM,NCI-H460,-94%
same,growth at 1 µM,HL-60(TB) [7],82%
same,GI50,MCF7 [8],6.15 µM
same,TGI,MCF7 [8],18.7 µM
same,CC50,MCF7 [8],45.2 µM
same,GI50,SF-539,13.7 µM
same,TGI,SF-539,27.5 µM
same,CC50,SF-539,55.3 µM
same,growth at 100 µM,ACHN,-89%
same,growth at 100 µM,NCI-H322M,-68%
same,growth at 0.01 µM,[9],100%
same,growth at 0.1 µM,[10],94%
same,growth at 0.1 µM,786-0 [11],88%
same,growth at 0.01 µM,CAKI-1,101%
same,growth at 1 µM,LOX IMVI,99%
same,growth at 0.1 µM,MCF7 [12],97%
same,growth at 0.01 µM,[13],88%
same,GI50,HT-29,3 µM
same,TGI,HT-29,8.38 µM
same,CC50,HT-29,53 µM
same,growth at 0.1 µM,SNB-75,85%
same,growth at 100 µM,SNB-19,-82%
same,GI50,TK-10,14.4 µM
same,LC50,TK-10,59.5 µM
same,TGI,TK-10,29.3 µM
same,growth at 0.1 µM,MDA-MB-231,101%
same,growth at 0.1 µM,HCC 2998,105%
same,growth at 0.01 µM,T47D,95%
same,growth at 0.01 µM,MDA-MB-435,100%
same,growth at 1 µM,IGROV-1 [14],106%
same,GI50,SN12C [15],14.2 µM
same,LC50,SN12C [15],58.7 µM
same,TGI,SN12C [15],28.9 µM
CC(C)=CCC[C@H](C)c1ccc(C)c(CNCC2CCNCC2)c1O,growth at 0.01 µM,A498,80%
same,growth at 0.1 µM,[1],93%
same,growth at 0.01 µM,HOP-62,96%
same,growth at 1 µM,U-251,94%
same,GI50,K562,1.01 µM
same,TGI,K562,4.86 µM
same,CC50,K562,19.9 µM
same,GI50,IGROV-1 [2],9.4 µM
same,LC50 (concentration killing 50% of cells),IGROV-1 [2],> 25 µM
same,TGI,IGROV-1 [2],> 25 µM
same,growth at 100 µM,786-0 [3],-47%
same,growth at 0.1 µM,SK-MEL-5,90%
same,growth at 100 µM,HL-60(TB) [4],-63%
same,GI50,[5],18.2 µM
same,LC50,[5],> 25 µM
same,TGI,[5],> 25 µM
same,growth at 0.01 µM,SN12C [6],92%
same,growth at 0.1 µM,NCI-H226,79%
same,growth at 100 µM,NCI-H460,-68%
same,growth at 1 µM,HL-60(TB) [7],88%
same,GI50,MCF7 [8],4.5 µM
same,TGI,MCF7 [8],8.34 µM
same,CC50,MCF7 [8],15.5 µM
same,GI50,SF-539,4.07 µM
same,TGI,SF-539,8.32 µM
same,CC50,SF-539,17 µM
same,growth at 100 µM,ACHN,-34%
same,growth at 100 µM,NCI-H322M,13%
same,growth at 0.01 µM,[9],100%
same,growth at 0.1 µM,[10],86%
same,growth at 0.1 µM,786-0 [11],87%
same,growth at 0.01 µM,CAKI-1,92%
same,growth at 1 µM,LOX IMVI,98%
same,growth at 0.1 µM,MCF7 [12],97%
same,growth at 0.01 µM,[13],96%
same,GI50,HT-29,4.51 µM
same,TGI,HT-29,9.45 µM
same,CC50,HT-29,19.8 µM
same,growth at 0.1 µM,SNB-75,90%
same,growth at 100 µM,SNB-19,21%
same,GI50,TK-10,0.0551 µM
same,LC50,TK-10,> 25 µM
same,TGI,TK-10,17.8 µM
same,growth at 0.1 µM,MDA-MB-231,101%
same,growth at 0.1 µM,HCC 2998,95%
same,growth at 0.01 µM,T47D,101%
same,growth at 0.01 µM,MDA-MB-435,100%
same,growth at 1 µM,IGROV-1 [14],98%
same,GI50,SN12C [15],12.9 µM
same,LC50,SN12C [15],> 25 µM
same,TGI,SN12C [15],> 25 µM

# — ChEMBL document CHEMBL3390836, “Mannich- and LedererManasse-based analogues of the natural product S-(+)-curcuphenol as cancer proliferation and migration inhibitors” (Medchemcomm, 2012)
